ChEMBL document CHEMBL3301451, “MMV Malaria Box gametocyte functional viability assay screening”

Experiments:
Assay type in all cases: functional
Design in all cases: concentration or dose not given beside the values
Plasmodium falciparum [1] = assay: MMV: P. falciparum NF54 functionally mature Stage V gametocytes were incubated for 24 hr in the presence of the test compounds. Gamete formation was then triggered by addition of 2uM xantheurenic acid and temperature decrease to ~20C. Female gamete formation was recorded 24 hr later by automated microscopy detection of surface labelling of female gametes with a Cy3-conjugated antibody reactive to Pfs25. All compounds were tested in 4 independent experiments and data presented here is the mean.; conditions: NF54, 24 h
Plasmodium berghei = assay: MMV: P. berghei-infected blood was withdrawn from mice by cardiac pucture before being immediately added to ookinete culture medium containing test compounds. 26 hr later, GFP-positive ookinetes were identified and counted by automated microscopy. All compounds were tested in 4 independent experiments and data presented here is the mean.
Plasmodium falciparum [2] = assay: MMV: P. falciparum NF54 functionally mature Stage V gametocytes were incubated for 24 hr in the presence of the test compounds. Gamete formation was then triggered by addition of 2uM xantheurenic acid and temperature decrease to ~20C. Male gamete exflagellation was recorded and analysed by automated microscopy after 20 min. All compounds were tested in 4 independent experiments and data presented here is the mean.

Structure (SMILES)	inhibition (Plasmodium falciparum [1]) [%]	inhibition (Plasmodium berghei) [%]	inhibition (Plasmodium falciparum [2]) [%]
COc1ccc(C(=O)Nc2ccc3nc(N4CCCCC4)cc(C)c3c2)cc1OC	-48	-18.9	9.9
CN1CCN(c2c3c(c(C#N)c4nc5ccccc5n24)CCC3)CC1	-10.7	0.2959	16.1
CCN(CC)c1ccc(NC(=O)c2cccs2)cc1	-5.42	23.39	44.7
CCCCCCc1cc(O)c2c3c(c(=O)oc2c1)CCC(C)C3 (configuration not stated)	-7.13	-17.21	-1.29
COc1ccc2c(=O)cc(C(Cl)(Cl)Cl)oc2c1	-23.2	-22.17	31.7
O=C(Cc1ccccc1)NC(c1ccc(Cl)cc1)c1c(O)ccc2ccccc12 (configuration not stated)	10.7	-6.482	54.1
CCOc1ccccc1CNC(=O)C1c2ccccc2C(=O)N(CC(C)C)C1c1cccs1 (configuration not stated)	-3.09	3.43	15.7
COc1cccc(C=Cc2nc(=O)c3ccccc3o2)c1OC	-15.1	98.18	-2.89
COC(=O)c1ccc(Cl)c2c1C1C=CCC1C(c1cccc3ccccc13)N2 (configuration not stated)	10.4	-8.751	42.4
Cc1ccc(S(=O)(=O)c2c(COC(=O)c3cccc(C)c3)c(-c3ccccc3)nn2C)cc1	-31.3	-10.49	-0.37
COc1ccccc1CNC(=O)CCn1c(=O)[nH]c2ccccc2c1=O	-26.4	-17.49	13.3
COc1nc(Nc2ccc(C(C)C)cc2)nc(OC)n1	-59.5	-7.623	-0.697
Cc1cc(=O)oc2c1ccc1oc(C(=O)c3ccccc3)c(C)c12	-19.6	6.058	-11.5
COc1ccc2nc(C)cc(Nc3ccccc3O)c2c1	-42	-6.855	-8.38
O=C(Nc1ccc(CN2CCOCC2)cc1)c1ccc(-c2cc(Cl)ccc2Cl)o1	-21.4	-15.91	2.57
O=C(Nc1ccc(CN2CCOCC2)cc1)c1ccc(-c2ccc(Br)cc2)o1	-17.9	-6.99	14.4
Oc1ccccc1CN1CCC2(CCCN(Cc3ccccc3F)C2)C1 (configuration not stated)	-21.4	-6.641	22.9
COc1ccc(C2N(C)c3ccccc3N2C)cc1	24.3	-4.492	10.4
Cc1cc(NCCN2CCCCC2)c2ccc3ccccc3c2n1	7.19	-8.584	-47.9
Nc1ccn([C@@H]2O[C@H](CO)[C@@H](O)[C@H]2O)c(=O)n1 [CYTIDINE]	-25.7	-17.3	-18.8
CCCCc1c(C)nc2c(OC)cccc2c1O	0.0743	20.97	54.7
CCOc1cc2c(cc1OCC)C(c1cc(Cl)c(O)c(OCC)c1)NCC2 (configuration not stated)	14.7	-11.39	22.4

Structure (SMILES)	inhibition (Plasmodium falciparum [1]) [%]	inhibition (Plasmodium berghei) [%]	inhibition (Plasmodium falciparum [2]) [%]
COc1ccc(/C=C2/SC(=Nc3ccccc3)NC2=O)cc1	-46.5	15.63	3.39
Cc1ccc2cc3c(N)c4c(C)ccc(C)c4nc3nc2c1	-28.1	-10.8	-9.27
Cc1ccc(N2C3c4ccccc4N(S(=O)(=O)c4ccc(C)cc4)C2c2ccccc2N3S(=O)(=O)c2ccc(C)cc2)cc1	-6.27	-13.78	24.2
CC(C)CCNCC(O)Cn1c2ccccc2c2ccccc21.Cl (configuration not stated)	-12.9	4.97	-10.1
COc1cccc(NC(=O)Cn2c(C)c(C#N)c3ccccc32)c1	-23.6	-1.894	21.9
CC1CCN(Cc2c(O)ccc3cc(-c4nc5ccccc5s4)c(=O)oc23)CC1	-24.7	100	-4.49
COc1ccc(C2NCCc3c2[nH]c2ccccc32)cc1CN1CCN(c2ccc(F)cc2)CC1.Cl (configuration not stated)	-18.1	-1.071	5.86
Oc1c2c(nc3cc(-c4ccccc4)nn13)CCCC2	-27.5	4.402	1.37
CCOc1ccc2nc(C)cc(Nc3ccc(Br)cc3)c2c1	-27.4	-16.41	-29.1
COc1ccc(C2=C(c3ccc(OC)cc3)C3(c4ccccc4)C(=O)C2(c2ccccc2)C2C(=O)N(c4ccc(C)cc4)C(=O)C23)cc1 (configuration not stated)	7.88	-21.97	-9
O=c1nc(C=Cc2ccc(Cl)cc2)oc2ccccc12	-1.1	7	41
CCn1nc(-c2ccc(C(=O)OC)cc2)nc2c(=O)n(C)c(=O)nc1-2	-15.8	17.71	25.3
Fc1ccc2[nH]c3c(NCCCN4CCOCC4)ncnc3c2c1	-13.7	-27.65	14.8
CCOC(=O)c1c(C)n(-c2ccccc2)c2ccc(OC(=O)c3cc(OC)c(OC)c(OC)c3)cc12	-31.5	-17.17	18.3
CCOc1c(Br)cc(C2C(C(=O)OC)=CN(C)C=C2C(=O)OC)cc1OC	4.74	-9.574	8.8
COc1cc(C(=O)Nc2ccc(-c3nc4ccccc4[nH]3)cc2)cc(OC)c1OC	-25.2	21.1	-40.5
Cc1ccc(Nc2nc(N)c3ccccc3n2)cc1Cl	-26.1	-5.317	-51.8
Cn1c(=O)c2cc(C(=O)NCCCN3CCCCCC3)sc2c2ccccc21	-16.3	5.415	20.7
Cc1ccc(C(=O)c2oc3ccc4c(C)cc(=O)oc4c3c2C)cc1	-29.5	-19.35	-7.03
CC(C)OCc1cc(CN2CCN(c3cccc(Cl)c3)CC2)c(O)c2ncccc12	-27.4	5.6	10.1
CC1CN(C(=O)c2sc3ccccc3c2Cl)CC(C)O1 (configuration not stated)	-12.3	-8.352	35.6
Cc1ccc(C)c(Cn2c(N3CCC(C(=O)NCc4cccs4)CC3)nc3ccccc32)c1	9.01	-3.865	-124

Structure (SMILES)	inhibition (Plasmodium falciparum [1]) [%]	inhibition (Plasmodium berghei) [%]	inhibition (Plasmodium falciparum [2]) [%]
CCOc1cc2c(cc1OCC)C(c1cc(Cl)ccc1O)NCC2 (configuration not stated)	-14.7	9.631	4.54
Cl.N=c1n(CCN2CCCCC2)c2ccccc2n1CC(O)c1cccc(Br)c1 (configuration not stated)	-26.6	-14.54	-19.3
OC(CNCC1CCCO1)Cn1c2ccc(Cl)cc2c2cc(Cl)ccc21 (configuration not stated)	-43.4	3.62	-34.5
Oc1c(C(Nc2ccccn2)c2cccc(Oc3ccccc3)c2)ccc2cccnc12 (configuration not stated)	-17.6	-4.794	-38.1
CCCCCCc1cc2cc(-c3csc(C=Cc4ccccc4)n3)c(=O)oc2cc1O	-35.1	-12.07	-65.7
OC(CNC1CCCCC1)Cn1c2ccc(I)cc2c2cc(I)ccc21 (configuration not stated)	-48	-21.59	-12.3
O=C(Nc1ccc(C23CC4CC(CC(c5ccccc5)(C4)C2)C3)cc1)c1cccs1	-23.5	-2.527	18.1
COc1cc(SC)ccc1C(=O)N1CCCC(C)C1 (configuration not stated)	6.66	-13.09	23.2
COc1ccc(C(=O)C2CC2c2ccc(Cl)cc2)cc1 (configuration not stated)	-10.6	-7.167	19.4
CC(C)c1ccc(CNCC(O)c2ccccc2)cc1.Cl (configuration not stated)	-2.85	-4.617	4.92
COc1cccc(C(=O)Nc2ccc(-c3nc4ccccc4[nH]3)cc2)c1	1.53	18.46	24
CCN(Cc1ccccc1)C1CCN(Cc2cc(Br)ccc2O)CC1.O=C(O)C(=O)O	-4.68	11.31	7.05
CCCC(c1nnnn1C1CCCCC1)N1CCN(C(=O)c2ccco2)CC1.Cl (configuration not stated)	-48.5	-10.21	23.7
CCCCCC(=O)N1c2ccccc2N=C2CC(c3ccc(OC)c(OC)c3)CC(O)=C2C1c1ccc(C(F)(F)F)cc1 (configuration not stated)	-11.5	-9.202	59.4
CC(=O)c1ccc(NC(=O)CSc2nc(-c3ccccc3Cl)ns2)cc1	2.09	-19.34	33.1
COc1ccc(-c2nc3cc(Cc4ccc5[nH]c(-c6ccc(OC)cc6)nc5c4)ccc3[nH]2)cc1	-12.5	-5.308	28.3
COc1ccc(C(O)(CCC(C)C)C(CN2CCOCC2)c2ccc(Cl)cc2)cc1.Cl (configuration not stated)	6.32	5.473	-0.282
Cc1ccc(CN2CCC(C(=O)Nc3ccc(-c4cc5ccccc5[nH]4)cc3)CC2)o1	-19.7	-4.815	7.05
Nc1ccc(-c2nc3cc(Cc4ccc5[nH]c(-c6ccc(N)cc6)nc5c4)ccc3[nH]2)cc1	2.76	-14.26	26.6
Cn1c(C(=O)c2cccc3ccccc23)nc2ccccc21	-20.6	-7.647	-24.7
